Assay results from publication PMC10531095, “Photonics of Some Monomethine Cyanine Dyes in Solutions and in Complexes with Biomolecules” (International Journal of Molecular Sciences, 2023).

Key:
[1] = system: dsDNA; test: Thermal dissociation (melting) of dsDNA in the presence of MCD; type: binding, chick; conditions: cdsDNA~6 × 10^−5 mol L^−1, cMCD~6 × 10^−6 mol L^−1; for Tm(dsDNA), melting point of dsDNA in the presence of MCD: without cyanines 80 °C
From the text: It is known that noncovalent ligand–dsDNA interactions upon the intercalative type of binding lead to additional stabilization of the biopolymer, which is reflected in an increase in the temperature range of thermal dissociation of the DNA double helix. From the data on the thermal dissociation of dsDNA, it is easy to obtain the melting point Tm(dsDNA) (at which 50% dsDNA is denatured). Note that Tm(dsDNA) depends on its GC composition, molecular length, and degree of strand complementarity; long duplexes with fewer base mismatches will have higher Tm(dsDNA) than short duplexes with more mismatches.
Melting of the DNA double helix was measured spectrophotometrically at t = […], the normalized temperature dependences of the absorbances of the samples at λabs = 260 nm are shown in Figure 8.
Single-stranded form of DNA (single-stranded DNA; ssDNA) was obtained according to the method described in [74]. The concentrations of DNA and the dyes were controlled spectrophotometrically. Molar extinction coefficient of dsDNA (ε, L⋅mol^−1⋅cm^−1) was taken to be 13,200 L mol^−1 cm^−1 (per base pair); for ssDNA, ε = 9045 L mol^−1 cm^−1 (per one base) was used. For MCD 1 and 2 in an aqueous buffer solution, we used extinction coefficients ε = 40,000 and 68,000 L mol^−1 cm^−1, respectively, which were taken from. For MCD 3 and 4, the molar extinction coefficients in ethanol solution were 69,200 and 49,000 L mol^−1 cm^−1 (taken from). […] Spectral fluorescent characteristics of MCD in complexes with biomacromolecules were studied by titration of dye solutions (see Supplementary Materials). The thermal dissociation (“melting”) of dsDNA in the presence of MCD was studied spectrophotometrically (λabs = 260 nm), the sample was heated (t° = 30–95 °C) using Peltier cells, and the temperature was controlled using a thermocouple. Melting points tm, corresponding to 50% hyperchromia of DNA samples were obtained.

[2] = target: T1, HSA (Homo sapiens, UniProt P02768); test: FRET parameters between HSA donor fluorophores and MCD acceptors; type: binding; conditions: MCD acceptor
T1 construct: purchased Sigma-Aldrich
T1 sequence (P02768 25-609): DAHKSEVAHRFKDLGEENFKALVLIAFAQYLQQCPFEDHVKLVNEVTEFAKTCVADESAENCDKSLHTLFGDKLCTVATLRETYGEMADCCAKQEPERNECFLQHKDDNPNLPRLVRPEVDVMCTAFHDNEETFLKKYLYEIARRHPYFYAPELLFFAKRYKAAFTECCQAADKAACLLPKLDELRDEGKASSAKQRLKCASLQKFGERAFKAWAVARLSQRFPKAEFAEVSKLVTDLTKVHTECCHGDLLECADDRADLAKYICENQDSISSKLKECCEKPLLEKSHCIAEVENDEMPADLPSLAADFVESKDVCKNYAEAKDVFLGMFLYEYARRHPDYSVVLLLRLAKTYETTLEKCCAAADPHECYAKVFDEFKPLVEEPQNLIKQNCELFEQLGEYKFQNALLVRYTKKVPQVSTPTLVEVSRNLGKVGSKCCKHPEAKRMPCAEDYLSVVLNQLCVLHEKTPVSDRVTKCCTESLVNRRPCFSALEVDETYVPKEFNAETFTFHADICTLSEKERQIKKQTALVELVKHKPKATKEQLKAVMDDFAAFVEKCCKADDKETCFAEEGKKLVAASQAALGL
From the text: Quenching of intrinsic fluorescence of HSA can occur, in particular, due to energy transfer (Förster resonance energy transfer, FRET) from protein donor fluorophores to MCD acceptor molecules. In the MCD–HSA system, complexation brings acceptors and donors closer together and facilitates FRET. FRET is likely because HSA fluorescence and MCD absorption spectra overlap. For MCD and HSA, the overlap integrals J (see Equation (S7) in Supplementary Materials) were obtained in the order of 2.0–7.0 × 10^15 mol^−1 cm^−1 nm^4 (for MCD 4 see Figure S15 in Supplementary Materials). […] This is probably due to the strong aggregation of MCD 3 in the presence of HSA, which decreases the concentration of monomeric dye molecules active in fluorescence quenching (see Supplementary Materials, Figure S8). […] But as the dye concentration increases, its aggregation is built up steeply, and the fluorescence quenching diminishes.
The parameters of FRET between albumin donor chromophores (tyrosine and tryptophan amino acid residues of HSA) and acceptors (MCD 1–4 molecules) were determined from the spectral fluorescent data using the standard formulae for the spectral overlap integral J (M^−1 cm^−1 nm^4) and critical radius of energy transfer R0 (see Supplementary Material, Equations (S7) and (S8), respectively). […]

Structure (SMILES)	growth of Tm(dsDNA) [1]	Tm(dsDNA), melting point of dsDNA in the presence of MCD [1]	R0, Förster critical radius [2]
CCN1/C(=C/c2sc3ccccc3[n+]2CC)Sc2ccccc21 [MCD 3]	2–3 °C	82 °C	~ 50 Å
CCN1/C(=C/c2ccc3ccccc3[n+]2CC)C=Cc2ccccc21 [MCD 4]	2–3 °C	83 °C	
CC[N+](CC)(CC)CCC[n+]1ccc(/C=C2\Sc3ccccc3N2C)c2ccc(O)cc21 [MCD 1]		85–86 °C	
